Results reported in EP0450100A1, “PHYSIOLOGICALLY ACTIVE PEPTIDE” (MEIJI SEIKA KAISHA LTD., priority 1989, dated 1991).
No end group written: not given here.

Tested on: canine femoral artery
Experiment: Influence of the peptides on the blood flow passing through canine femoral artery (VIP bioassay method of Said and Mutt)
Type: in vivo
Details: anesthetized beagles; 200 p mol/kg injected into the femoral artery; 0.5 to 4 minutes after injection; conclusion from Table 1 and Table 2
Description: The above-mentioned influence was estimated according to the VIP bioassay method proposed by Said and Mutt [see "Nature" 225, 863-864 (1970)]. After three mature beagles having the body weight of 10 kg were fasted for 18 hours, they were anesthetized with thiamylal (10 mg/kg) and Nembutal ([…]). During the experiment, physiological saline was continuously injected (2 mℓ/min.) into a vein of each beagle and the body temperature of the beagle was maintained at 37-38°C by an electric heater. The femoral artery was surgically exposed, and a polyethylene tube filled with heparin-added physiological saline was inserted in and fixed to a muscle branch of the femoral artery so that the polyethylene tube could be used as an injection route for each peptide under test. A probe of an electro-magnetic blood flowmeter was attached to the femoral artery on a peripheral side of the muscle branch so that the average flow rate of blood through the artery was recorded as time-dependent variations on a polygraphy.
A solution of 10 µg of each tested polypeptide dissolved in 25 µℓ of 0.01 N HCl was diluted with physiological saline to prepare an injectable solution of the peptide. The injectable solution was injected into the artery by means of a peristaltic pump. Each peptide was injected at the dose of 200 p mol/kg. Tested peptides included the following compounds: Compound 1: Hd(1-33)-NH2 [the invention peptide of formula (Ic)] Compound 2: Hd(1-31)-NH₂ [the invention peptide of formula (Ia)] Compound 3: VIP(1-28)-Hd(29-35)-NH₂ [the invention peptide of formula (III)] Compound 4: VIP(1-11)-Hd(12-31)-NH₂ [the invention peptide of formula (II)]
Upon elapsed times of 0.5 minute, 1 minute, 2 minutes, 3 minutes and 4 minutes after the injection of each peptide under test,the blood flow rate was measured. Increases in the femoral arterial blood flow rate (mℓ/min.) as comapred with the basal level of blood flow rate were calculated. It may be added that the test results of Table 1 and those of Table 2 were obtained through tests which were conducted by the same method but at different times.

Substance | activity of increasing the blood flow rate (femoral arterial blood flow rate) compared with helodermin | sustaining of the blood-flow-rate-increasing activity compared with helodermin
HSDAIFTQQYSKLLAKLALQKYLASILGSRT-NH2 [Compound 2, Hd(1-31)-NH₂] | enhanced activity of increasing the blood flow rate over helodermin | effects of sustaining the blood-flow-rate-increasing activity in comparison with helodermin
HSDAIFTQQYSKLLAKLALQKYLASILGSRTSP-NH2 [Compound 1, Hd(1-33)-NH₂] | enhanced activity of increasing the blood flow rate over helodermin | effects of sustaining the blood-flow-rate-increasing activity in comparison with helodermin
